Assay results from US7572797B2, “Amino substituted pyrazine derivatives for the treatment of pain” (Pfizer Inc., priority 2005, dated 2009).
pIC50: −log10 of the molar value. Like-named read-outs stand apart in the source and are kept apart here.

Tests used:
Human Nav1.8 = target: T1, Human Nav1.8 (Homo sapiens, UniProt Q9Y5Y9); assay: VIPR assay for Nav1.8 (FRET membrane potential, deltamethrin as opener); assay type: cell-based; conditions: for pIC50: HEK293 cells expressing human Nav1.8, average of replicates; for Selectivity Ratio: TTX-S IC50 / NaV1.8 IC50
T1 construct: expressed in transfected cells

[1] = system: tetrodotoxin-sensitive voltage-gated sodium channels including NaV1.2, NaV1.3 and NaV1.7 (SHSY-5Y cell line); assay: TTX-S assay in SHSY-5Y cell line (VIPR procedure, veratridine as opener); assay type: cell-based; conditions: read-out: TTX-S IC50, SHSY-5Y cells, veratridine 50 μM, average of replicates
[2] = automated dissolution procedure

T1 sequence (Q9Y5Y9 whole entry): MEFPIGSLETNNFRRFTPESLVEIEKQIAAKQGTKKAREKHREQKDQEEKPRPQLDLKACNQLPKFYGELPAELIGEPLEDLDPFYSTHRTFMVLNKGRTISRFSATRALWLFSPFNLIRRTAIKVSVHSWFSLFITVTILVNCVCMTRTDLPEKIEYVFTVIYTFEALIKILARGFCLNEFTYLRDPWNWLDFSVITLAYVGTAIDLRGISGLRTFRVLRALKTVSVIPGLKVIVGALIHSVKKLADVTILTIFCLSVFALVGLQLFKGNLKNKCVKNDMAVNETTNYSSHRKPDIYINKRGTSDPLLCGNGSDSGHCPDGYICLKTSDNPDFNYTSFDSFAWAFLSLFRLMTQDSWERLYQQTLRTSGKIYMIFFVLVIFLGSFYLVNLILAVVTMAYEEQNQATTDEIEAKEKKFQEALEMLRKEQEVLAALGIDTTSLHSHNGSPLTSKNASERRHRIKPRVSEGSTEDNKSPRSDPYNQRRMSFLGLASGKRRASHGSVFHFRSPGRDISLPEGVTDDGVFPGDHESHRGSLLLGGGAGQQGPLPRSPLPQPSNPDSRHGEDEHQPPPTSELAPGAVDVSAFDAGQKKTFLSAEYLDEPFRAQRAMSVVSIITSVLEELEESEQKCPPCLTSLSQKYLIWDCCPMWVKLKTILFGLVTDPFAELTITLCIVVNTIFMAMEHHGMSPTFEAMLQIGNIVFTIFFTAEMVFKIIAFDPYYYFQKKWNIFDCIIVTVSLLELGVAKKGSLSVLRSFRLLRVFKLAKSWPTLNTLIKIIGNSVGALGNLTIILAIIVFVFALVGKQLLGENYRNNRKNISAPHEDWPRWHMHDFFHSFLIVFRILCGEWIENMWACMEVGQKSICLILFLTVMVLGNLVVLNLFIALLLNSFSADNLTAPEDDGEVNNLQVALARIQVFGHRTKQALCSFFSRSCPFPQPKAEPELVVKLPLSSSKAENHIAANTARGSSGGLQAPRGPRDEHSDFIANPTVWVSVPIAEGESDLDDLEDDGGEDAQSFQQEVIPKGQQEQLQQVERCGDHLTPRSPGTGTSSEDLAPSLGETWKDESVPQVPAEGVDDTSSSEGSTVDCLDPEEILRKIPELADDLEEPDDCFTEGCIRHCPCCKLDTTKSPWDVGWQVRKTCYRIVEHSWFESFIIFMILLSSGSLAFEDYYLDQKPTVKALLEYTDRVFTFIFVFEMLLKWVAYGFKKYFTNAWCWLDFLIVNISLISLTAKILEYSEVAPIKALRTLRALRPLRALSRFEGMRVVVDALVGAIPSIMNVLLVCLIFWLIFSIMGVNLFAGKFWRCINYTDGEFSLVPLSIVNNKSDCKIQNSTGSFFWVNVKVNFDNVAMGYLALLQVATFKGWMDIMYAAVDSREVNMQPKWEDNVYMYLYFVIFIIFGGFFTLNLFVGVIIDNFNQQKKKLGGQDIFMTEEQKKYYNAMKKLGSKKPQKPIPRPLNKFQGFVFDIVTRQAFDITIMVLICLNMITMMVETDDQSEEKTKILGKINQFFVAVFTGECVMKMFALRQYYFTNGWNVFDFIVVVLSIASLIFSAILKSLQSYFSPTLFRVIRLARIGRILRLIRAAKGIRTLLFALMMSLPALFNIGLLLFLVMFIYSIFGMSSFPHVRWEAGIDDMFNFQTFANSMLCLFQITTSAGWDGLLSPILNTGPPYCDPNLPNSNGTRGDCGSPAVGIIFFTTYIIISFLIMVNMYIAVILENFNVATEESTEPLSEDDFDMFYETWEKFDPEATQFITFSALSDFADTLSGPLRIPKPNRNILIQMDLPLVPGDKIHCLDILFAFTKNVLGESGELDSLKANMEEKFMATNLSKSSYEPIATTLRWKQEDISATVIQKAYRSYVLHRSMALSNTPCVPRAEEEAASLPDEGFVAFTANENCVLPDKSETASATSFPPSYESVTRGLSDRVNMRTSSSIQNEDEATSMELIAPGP

SMILES | pIC50 (Human Nav1.8; [2]) | Selectivity Ratio (Human Nav1.8; [2]) | pIC50 [1, 2] | pIC50 (Human Nav1.8; manual dissolution procedure) | Selectivity Ratio (Human Nav1.8; manual dissolution procedure) | pIC50 ([1]; manual dissolution procedure)
COc1cc(Cl)cc(-c2ncc(NC(=O)c3conc3C)nc2N)c1Cl [Example 49, N-[6-Amino-5-(2,5-dichloro-3-methoxyphenyl)pyrazin-2-y]-3-methylisoxazole-4-carboxamide] | 6.20 | >21.6 | < 4.87 |  |  | 
Nc1nc(NC(=O)c2ccn[nH]2)cnc1-c1cc(Cl)ccc1Cl [Example 62, N-[6-amino-5-(2,5-dichlorophenyl)pyrazin-2-yl]-1H-pyrazole-5-carboxamide] | < 4.52 |  | < 4.52 |  |  | 
Cc1nocc1C(=O)Nc1cnc(-c2cc(Cl)ccc2Cl)c(N)n1 [Example 20, N-[6-amino-5-(2,5-dichlorophenyl)pyrazin-2-yl]-3-methylisoxazole-4-carboxamide] | 6.29 | 18.00 | 5.04 | 6.73 | 66.5 | 4.90
Cc1nonc1C(=O)Nc1cnc(-c2cc(Cl)ccc2Cl)c(N)n1 [Example 23, N-[6-amino-5-(2,5-dichlorophenyl)pyrazin-2-yl]-4-methyl-1,2,5-oxadiazole-3-carboxamide] | 5.09 | >3.54 | < 4.55 |  |  | 
Cn1nccc1C(=O)Nc1cnc(-c2cc(Cl)cc3c2OCCO3)c(N)n1 [Example 3, N-[6-Amino-5-(7-chloro-2,3-dihydro-1,4-benzodioxin-5-yl)pyrazin-2-yl]-1-methyl-1H-pyrazole-5-carboxamide] | 4.82 | >1.89 | < 4.54 |  |  | 
Cc1nonc1C(=O)Nc1cnc(-c2cc(Cl)cc3c2OCCO3)c(N)n1 [Example 41, N-[6-amino-5-(7-chloro-2,3-dihydro-14-benzodioxin-5-yl)pyrazin-2-yl]-4-methyl-1,2,5-oxadiazole-3-carboxamide] | 4.90 | >2.22 | < 4.55 |  |  | 
Cc1nonc1C(=O)Nc1cnc(-c2cccc(Cl)c2Cl)c(N)n1 [Example 59, N-[6-amino-5-(2,3-dichlorophenyl)pyrazin-2-yl]-4-methyl-1,2,5-oxadiazole-3-carboxamide] | 5.14 | >3.58 | < 4.59 |  |  | 
Cc1oncc1C(=O)Nc1cnc(-c2cc(Cl)cc3c2OCCO3)c(N)n1 [Example 39, N-[6-amino-5-(7-chloro-2,3-dihydro-1,4-benzodioxin-5-yl)pyrazin-2-yl]-5-methylisoxazole-4-carboxamide] | 5.26 | >3.25 | < 4.75 |  |  | 
Nc1nc(NC(=O)c2ccon2)cnc1-c1cc(Cl)cc2c1OCCO2 [Example 43, N-[6-amino-5-(7-chloro-2,3-dihydro-1,4-benzodioxin-5-yl)pyrazin-2-yl]isoxazole-3-carboxamide] | < 4.68 | ->1.43 | < 4.52 |  |  | 
Cc1oncc1C(=O)Nc1cnc(-c2cc(Cl)cc(Cl)c2Cl)c(N)n1 [Example 14, N-[6-amino-5-(2,3,5-trichlorophenyl)pyrazin-2-yl]-5-methylisoxazole-4-carboxamide] | 5.87 | 10.8 | 4.83 | 6.56 | 12.7 | 5.46
Cc1nocc1C(=O)Nc1cnc(-c2ccccc2Cl)c(N)n1 [Example 16, N-[6-amino-5-(2-chlorophenyl)pyrazin-2-yl]-3-methylisoxazole-4-carboxamide] | 6.00 | >23.6 | < 4.62 |  |  | 
COc1cc(Cl)cc(-c2ncc(NC(=O)c3cnoc3C)nc2N)c1Cl [Example 13, N-[6-amino-5-(2,5-dichloro-3-methoxyphenyl)pyrazin-2-yl]-5-methylisoxazole-4-carboxamide] | 4.98 | >2.48 | < 4.59 |  |  | 
Cc1nocc1C(=O)Nc1cnc(-c2cc(Cl)cc(Cl)c2Cl)c(N)n1 [Example 18, N-[6-amino-5-(2,3,5-trichlorophenyl)pyrazin-2-yl]-3-methylisoxazole-4-carboxamide] |  |  |  | 6.38 | >72.0 | < 4.52
Cc1nocc1C(=O)Nc1cnc(-c2cccc3ccccc23)c(N)n1 [Example 19, N-[6-amino-5-(1-naphthyl)pyrazin-2-yl]-3-methylisoxazole-4-carboxamide] |  |  |  | 5.33 | >6.36 | < 4.52
COc1ccc(Cl)c(-c2ncc(NC(=O)c3ccnn3C)nc2N)c1 [Example 2, N-[6-Amino-5-(2-chloro-5-methoxyphenyl)pyrazin-2-yl]-1-methyl-1H-pyrazole-5-carboxamide] | 5.49 | 11.8 | 4.42 |  |  | 
COCCn1nccc1C(=O)Nc1cnc(-c2cc(OC)ccc2Cl)c(N)n1 [Example 34, N-[6-amino-5-(2-chloro-5-methoxyphenyl)pyrazin-2-yl]-1-(2-methoxyethyl)-1H-pyrazole-5-carboxamide] | 4.81 |  | < 4.52 |  |  | 
Cc1nonc1C(=O)Nc1cnc(-c2ccccc2Cl)c(N)n1 [Example 55, N-[6-amino-5-(2-chlorophenyl)pyrazin-2-yl]-4-methyl-1,2,5-oxadiazole-3-carboxamide] | < 4.67 | ->1.40 | < 4.52 |  |  | 
Cn1nccc1C(=O)Nc1cnc(-c2cc(Cl)cc(Cl)c2Cl)c(N)n1 [Example 1, N-[6-Amino-5-(2,3,5-trichlorophenyl)pyrazin-2-yl]-1-methyl-1H-pyrazole-5-carboxamide] |  |  |  | 6.01 | 11.4 | 4.95
COCCn1nccc1C(=O)Nc1cnc(-c2cccc(Cl)c2Cl)c(N)n1 [Example 58, N-[6-amino-5-(2,3-dichlorophenyl)pyrazin-2-yl]-1-(2-methoxyethyl)-1H-pyrazole-5-carboxamide] | 5.03 | >3.21 | < 4.52 |  |  | 
Nc1nc(NC(=O)c2cnoc2)cnc1-c1cccc(Cl)c1Cl [Example 60, N-[6-amino-5-(2,3-dichlorophenyl)pyrazin-2-yl]isoxazole-4-carboxamide] | 5.14 | >4.20 | < 4.52 |  |  | 
COCCn1nccc1C(=O)Nc1cnc(-c2ccccc2Cl)c(N)n1 [Example 56, N-[6-amino-5-(2-chlorophenyl)pyrazin-2-yl]-1-(2-methoxyethyl)-1H-pyrazole-5-carboxamide] | < 4.57 |  | < 4.52 |  |  | 
Cn1nccc1C(=O)Nc1cnc(-c2ccccc2Cl)c(N)n1 [Example 57, N-[6-amino-5-(2-chlorophenyl)pyrazin-2-yl]-1-methyl-1H-pyrazole-5-carboxamide] | < 4.55 |  | < 4.52 |  |  | 
Cc1nocc1C(=O)Nc1cnc(-c2cccc(Cl)c2Cl)c(N)n1 [Example 17, N-[6-amino-5-(2,3-dichlorophenyl)pyrazin-2-yl]-3-methylisoxazole-4-carboxamide] | 6.37 | 29.4 | 4.90 |  |  | 
Cn1nccc1C(=O)Nc1cnc(-c2cc(F)ccc2Cl)c(N)n1 [Example 4, N-[6-amino-5-(2-chloro-5-fluorophenyl)pyrazin-2-yl]-1-methyl-1H-pyrazole-5-carboxamide] | 5.06 | >3.46 | < 4.52 |  |  | 
Cn1nccc1C(=O)Nc1cnc(-c2cc(Cl)ccc2Cl)c(N)n1 [Example 7, N-[6-amino-5-(2,5-dichlorophenyl)pyrazin-2-yl]-1-methyl-1H-pyrazole-5-carboxamide] | 5.42 | 5.40 | 4.69 | 5.40 | 3.79 | 4.82
COc1ccc(Cl)c(-c2ncc(NC(=O)c3nonc3C)nc2N)c1 [Example 29, N-[6-amino-5-(2-chloro-5-methoxyphenyl)pyrazin-2-yl]-4-methyl-1,2,5-oxadiazole-3-carboxamide] | 5.10 | >3.69 | < 4.53 |  |  | 
COc1ccc(Cl)c(-c2ncc(NC(=O)c3cnoc3C(C)C)nc2N)c1 [Example 30, N-[6-amino-5-(2-chloro-5-methoxyphenyl)pyrazin-2-yl]-5-isopropylisoxazole-4-carboxamide] | 5.44 | >8.15 | < 4.53 |  |  | 
Cc1nonc1C(=O)Nc1cnc(-c2cccc3ccccc23)c(N)n1 [Example 44, N-[6-amino-5-(1-naphthyl)pyrazin-2-yl]-4-methyl-1,2,5-oxadiazole-3-carboxamide] | 4.78 | >1.67 | < 4.56 |  |  | 
Cn1nccc1C(=O)Nc1cnc(-c2cc(C#N)ccc2Cl)c(N)n1 [Example 11, N-[6-amino-5-(2-chloro-5-cyanophenyl)pyrazin-2-yl]-1-methyl-1H-pyrazole-5-carboxamide] | 5.35 | >6.76 | < 4.52 |  |  | 
CCCc1oncc1C(=O)Nc1cnc(-c2cc(OC)ccc2Cl)c(N)n1 [Example 38, N-[6-amino-5-(2-chloro-5-methoxyphenyl)pyrazin-2-yl]-5-propylisoxazole-4-carboxamide] | < 4.52 |  | < 4.52 |  |  | 
